These results are taken from patent US10478435B2, “Use of CRAC channel inhibitors for the treatment of stroke and traumatic brain injury” (CalciMedica, Inc., priority 2015, dated 2019).

The test deals with BV2 cells. The test can be described thus: Intracellular calcium accumulation in BV2 cells by live fluorescence microscopy with a calcium fluorescent probe. It is filed as cell-based. Conditions: Compound at 10 uM, FIG. 7. How it is done:
Described herein, in some embodiments CRAC channel inhibitors are neuroprotectants in brain ischemia and related conditions. A neuron cell line (Neuro-2A, N-2A) was either cultured alone or in co-culture with microglial BV2 cells. Cells were exposed to a cycle of 2 h oxygen glucose deprivation (OGD) plus 22 h reoxygenation in the absence or presence of inhibitor (concentrations 1-50 μM). Cell viability was determined using quantitative calorimetric MTT assay and live/dead assay using immunofluorescence imaging. Toll-like receptor (TLR)-3 and -4 agonists induced inflammatory responses in microglia leading to increased nitric oxide (NO) generation as determined by the Greiss reagent. Intracellular calcium was determined by live fluorescence microscopy using a calcium fluorescent probe. Peroxide levels were measured as an indicator of oxidative stress. CRAC channels proteins (STIM1 & ORAI1), phosphoactive stress kinase JNK1/2, iNOS and expression was determined by immunoblotting assays. NFκB, NFAT and CREB transcription factors activation was measured by phosphorylation and nuclear translocation. […] The functional activity of the CRAC channels was evaluated by the effect on intracellular calcium accumulation in BV2 cells. […]
Fluorescence-based A neuron cell line (Neuro-2A, N-2A) was either cultured alone or in co-culture with microglial BV2 cells. […]
(A change in cytosolic calcium serves as a functional read-out for many receptors and channels.)

Each structure is given as a SMILES string.

In the case of `Cc1nc2cc(C)c(-c3cnc(NC(=O)c4c(F)ccc(F)c4F)s3)cc2o1` [Compound D, N-(5-(2,5-dimethylbenzo[d]oxazol-6-yl)thiazol-2-yl)-2,3,6-trifluorobenzamide], the “LPS activated calcium accumulation” value is given as “blunts LPS activated calcium accumulation”.
